What was measured:
[1] = system: rat cortical neuron cultures; assay: OGD / re-oxygenation cell death, Hoechst DNA staining; assay type: cell-based; conditions: OGD two hours in the presence of homocysteine 50 μM, re-oxygenation 22 hours, vs OGD alone
Protocol: At specified time periods (one hour, two hours, and three hours) during OGD alone or OGD in the presence of L-Hcy (50 μM), cells were removed from the chamber and lysed for immunoblot analysis. Some cultures were treated with L-Hcy (three hours) during the OGD insult in the presence or absence of NVP-AAM077 (30 nM; 3 h). […] Cells were then subjected to staining with Hoechst 33342 dye for 15 minutes, washed extensively with PBS, and analyzed using fluorescent microscopy to assess nuclear damage. To quantitatively assess the percentage of pyknotic nuclei, a total of 1000 cells were counted for each set of experiments (Poddar et al., 2010, J Neurochem 115, 1350-1362).

PGE2 = PGE2 release from WT and GluN2A-KO mouse neuronal cultures; assay type: cell-based, mice; conditions: homocysteine 50 μM, four hours
Protocol: Neuron cultures were treated with or without L-homocysteine in the presence or absence of pharmacological inhibitors for the time period specified in each experiment. The medium was collected from each experimental plate and centrifuged at 1000 rpm for five minutes to remove cellular debris. Equal amounts (100 μl) of the supernatant from each sample were used to determine the amount of PGE2 using the PGE2 enzyme immunoassay kit according to the manufacturer's instructions. For measurement of cPLA2 activity, the neuronal cells from the above treated conditions were harvested in ice-cold Tris-buffered saline (pH7.4) containing sodium pyrophosphate as phosphatase inhibitor, sonicated three times with five-second bursts and two minutes on ice between intervals. The lysed cell suspensions were centrifuged at 10,000 rpm for 10 minutes and the supernatant removed. Equal amounts of protein from the supernatant (assessed using BCA protein estimation kit) were estimated for activity of cPLA2 using cPLA2 activity assay kit according to the manufacturer's protocol.
For measurement of PGE2 levels and MCP-1 levels released from neurons, culture medium was collected from each experimental plate and centrifuged at 1000 rpm for five minutes to remove cellular debris. […]

[2] = system: hyperhomocysteinemic rats subjected to MCAO; assay: Accelerated Rotarod test after MCAO; assay type: in vivo, male Wistar rats; conditions: HHcy rats, day 8 post MCAO, NVP-AAM077 1.2 mg/kg; untreated HHcy 96.99±4.11 sec
Protocol: All rats were subjected to a battery of behavioral tests on day 7 (CatWalk), day 8 (cylinder and rotarod tests) and day 9 (adhesive test) after MCAO to evaluate normal gait, motor coordination and sensory motor functions. Habituation and training (3 days) was performed for one week before MCAO. The first two trainings days were before osmotic pump implantation and the third training day was after pump implantation. An experienced observer blinded to the experimental conditions evaluated all behavioral parameters.
Accelerated Rotarod test: Control, hyperhomocysteinemic and NVP-AAM077 treated hyperhomocysteinemic rats were subjected to the accelerated Rotarod test to evaluate impairment of motor co-ordination and balance following stroke (Bouet et al., 2007, Exp Neurol 203:555-567; Schaar et al., 2010, Exp Transl Stroke Med 2:13). Rats were placed on a rotating cylindrical rod accelerating from 0 to 50 rpm for a period of 180 seconds, and their latency to fall was recorded. The mean of four runs (10 min rest between trials) was used for statistical analysis. One hyperhomocysteinemic rat was excluded from the study as the rat jumped off the rod repeatedly.

N[C@@H](CCS)C(=O)O [L-homocysteine]
OGD-induced cell death [1]: increases by two-fold
PGE2 release (PGE2; GluN2A-KO mice cultures): fails to induce PGE2 release
PGE2 release (PGE2; WT mice cultures): significantly increases PGE2 release

C[C@H](NC(c1cccc2[nH]c(=O)c(=O)[nH]c12)P(=O)(O)O)c1ccc(Br)cc1 (stereo partly drawn) [NVP-AAM077, ({[(1S)-1-(4-bromophenyl)ethyl]amino}-(2,3-dioxo-1,4-dihydroquinoxalin-5-yl)methyl)phosphonic acid]
latency to fall from accelerated rotarod [2]: 112.51 ± 4.9 s
